Data reported in publication PMC11558822, “Myc 9aaTAD activation domain binds to mediator of transcription with superior high affinity” (Molecular Medicine, 2024).
Residues, ends and D or L forms follow the SMILES beside them. No end group written: not given here. *: point of attachment. Biotin = O=C1N[C@H]2[C@H](CS[C@H]2CCCCC(=O)*)N1

Tests used:
[1] = tested on: lacZ reporter driven by the lexA operator; assay: One hybrid transactivation (β-galactosidase reporter) assay with LexA hybrids in yeast strain L40; assay type: cell-based, Saccharomyces cerevisiae; settings: for activation function (times): one hybrid assay, presence versus absence of 9aaTAD (region 100–108) in the construct; for ß-Gal: raw β-galactosidase activity; for Reporter activation (average value in %): β-galactosidase activity of LexA hybrid, % of positive control p53 construct 6p53 set to 100%, mean ± SD, n = 3; for normalized value in %: β-galactosidase, % of 6p53 mean
[2] = target: T1, KIX domain of CBP (Homo sapiens, UniProt Q92793); assay: Bio-layer interferometry (BLI) of immobilized 9aaTAD peptides with KIX domain; assay type: binding; settings: for Kd: BLI Octet RED96e, biotinylated peptide on streptavidin SA biosensors, KIX 0.31-5.0 μM, 20 mM sodium phosphate pH 6.0, 50 mM NaCl, 30 °C, steady-state 1:1 fit, average of pentaplicate, read-out: KD(apparent)
T1 construct: GST (N, cleaved yes); His6 (N, cleaved yes); made in house
Method: Bio-layer interferometry on Octet RED96e (ForteBio) was used for the analysis of interaction between KIX domain and proposed activation domains. All experiments were performed at 30 °C at 1000 rpm shaking. Streptavidin-bearing SA biosensors (ForteBio) were immersed for 300 s into the assay buffer (20 mM sodium phosphate pH 6.0, 50 mM NaCl) containing 60 μM biotinylated MLL, MYC or NMY peptide, respectively. After subsequent wash in the assay buffer, the final steady response of ligand reached 0.6–0.8 nm. Parallel blank sensor was treated the same way with pure assay buffer being used instead of biotinylated peptide solution in the immobilization step. For the binding assay, all sensors were used in parallel applying the following procedure: 120 s baseline in the assay buffer, 180 s association in the assay buffer containing increasing concentration of KIX domain for each cycle (0.31, 0.63, 1.25, 2.5 and 5.0 μM), 240 s dissociation in the assay buffer and 3 repetitions of 30 s regeneration in 50 mM NaOH followed by 30 s assay buffer wash. Each binding experiment was performed in pentaplicate and the data were processed using Data Analysis 11.1 evaluation SW (ForteBio). Obtained binding curves were blank-subtracted and fitted by a 1:1 binding model using steady state analysis. Final KD (apparent) values were calculated as an average of all measurements.

[3] = replicate 1 (first sample of the construct)
[4] = replicate 2 (second sample of the construct)
[5] = replicate 3 (third sample of the construct)

T1 sequence (Q92793 587-666 limits assumed): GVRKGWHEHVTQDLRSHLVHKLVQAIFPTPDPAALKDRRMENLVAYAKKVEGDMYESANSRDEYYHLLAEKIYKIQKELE

Compound	activation function (times) [1] [times]	ß-Gal [1, 3]	ß-Gal [1, 4]	ß-Gal [1, 5]	Reporter activation (average value in %) [1] [%]	normalized value in % [1, 3] [%]	normalized value in % [1, 4] [%]	normalized value in % [1, 5] [%]	Binding to KIX ([2]; BLI, KIX in the 3–16 μM range, negative control)	Kd [2] [nM]
c-Myc region 69-108: LexA hybrid construct of c-Myc region 69–108 with 9aaTAD (ELLPTPPLSPSRRSGLCSPSYVAVTPFSLRGDNDGGGGSF; LexA fusion; UniProt P01106 69-108, looked up, fragment)	3	255	241	242	90	93	88	89	–	–
Biotin—GSS- GQ VSWQ T LQLQ NLQ [native Sp1, biotinylated native Sp1 9aaTAD peptide, negative control for BLI, reference compound]	–	–	–	–	–	–	–	–	did not bind	–
c-Myc region 69-103: LexA hybrid construct of c-Myc region 69–103 without 9aaTAD (ELLPTPPLSPSRRSGLCSPSYVAVTPFSLRGDNDG; LexA fusion; UniProt P01106 69-103, looked up, fragment)	–	74	83	71	29	27	31	26	–	–
CSCC[C@H](NC(=O)[C@H](CCC(=O)O)NC(=O)[C@@H](NC(=O)[C@@H](NC(=O)[C@H](Cc1c[nH]c2ccccc12)NC(=O)[C@H](CO)NC(=O)[C@@H]1CCCN1C(=O)[C@@H]1CCCN1C(=O)[C@H](CCC(=O)O)NC(=O)[C@H](CO)NC(=O)[C@H](CO)NC(=O)[C@H](CO)NC(=O)CNC(=O)CCCC[C@@H]1SC[C@@H]2NC(=O)N[C@@H]21)C(C)C)[C@@H](C)O)C(=O)N[C@@H](CC(C)C)C(=O)N[C@@H](CC(C)C)C(=O)N[C@@H](CCC(=O)O)C(=O)N[C@@H](CC(N)=O)C(=O)O [N-Myc] (Biotin-GSSSEPPSWVTEMLLEN-OH)	–	–	–	–	–	–	–	–	–	880 ± 110
c-Myc region 98-108: LexA hybrid construct of alone-standing c-Myc 9aaTAD activation domain (RGDNDGGGGSF; also: LexA fusion; UniProt P01106 98-108, looked up, fragment)	67	191	185	169	67	70	68	62	–	–
CSCC[C@H](NC(=O)[C@H](CCC(=O)O)NC(=O)[C@H](CC(C)C)NC(=O)[C@H](CCC(N)=O)NC(=O)[C@@H](NC(=O)[C@H](CO)NC(=O)[C@H](CO)NC(=O)[C@H](CO)NC(=O)CNC(=O)CCCC[C@@H]1SC[C@@H]2NC(=O)N[C@@H]21)[C@@H](C)O)C(=O)N[C@H](C(=O)N[C@H](C(=O)N[C@@H](CCC(=O)O)C(=O)N[C@@H](CC(C)C)C(=O)N[C@@H](CC(C)C)C(=O)NCC(=O)O)[C@@H](C)O)C(C)C [c-Myc] (Biotin-GSSSTQLEMVTELLG-OH)	–	–	–	–	–	–	–	–	–	2160 ± 1170
CC(C)C[C@H](NC(=O)[C@H](CC(=O)O)NC(=O)[C@H](CC(=O)O)NC(=O)[C@H](CC(C)C)NC(=O)[C@H](CC(=O)O)NC(=O)[C@H](CC(C)C)NC(=O)[C@@H](NC(=O)[C@H](CC(=O)O)NC(=O)[C@H](Cc1c[nH]c2ccccc12)NC(=O)[C@H](CO)NC(=O)[C@@H](NC(=O)[C@H](CC(=O)O)NC(=O)CNC(=O)[C@H](CO)NC(=O)[C@H](CO)NC(=O)CNC(=O)CCCC[C@@H]1SC[C@@H]2NC(=O)N[C@@H]21)C(C)C)[C@@H](C)O)C(=O)N[C@@H](CC(=O)O)C(=O)O [Sp1-Ac] (Biotin-GSSGDVSWDTLDLDDLD-OH)	–	–	–	–	–	–	–	–	–	9770 ± 1570
CC[C@H](C)[C@H](NC(=O)[C@H](CC(=O)O)NC(=O)[C@H](CO)NC(=O)[C@@H]1CCCN1C(=O)[C@H](CC(C)C)NC(=O)[C@@H](NC(=O)[C@H](CC(N)=O)NC(=O)[C@H](CO)NC(=O)CNC(=O)CCCC[C@@H]1SC[C@@H]2NC(=O)N[C@@H]21)[C@@H](C)CC)C(=O)N[C@@H](CCSC)C(=O)N[C@@H](CC(=O)O)C(=O)N[C@@H](Cc1ccccc1)C(=O)N[C@H](C(=O)N[C@@H](CC(C)C)C(=O)N[C@@H](CCCCN)C(=O)N[C@@H](CC(N)=O)C(=O)N[C@H](C(=O)O)[C@@H](C)O)C(C)C [MLL, reference compound] (Biotin-GSNILPSDIMDFVLKNT-OH)	–	–	–	–	–	–	–	–	–	1170 ± 210
